Measurements reported in patent publication US20250154611A1, “SYSTEMS AND METHODS TO DETECT STEM CELL STRESS AND USES THEREOF” (Wayne State University, priority 2014, published 2025).

Experiments:
TSCs = experiment: qPCR of terminal differentiation markers in TSCs with or without 100 mM sorbitol; type: cell-based, mouse; details: 0.5% O2, 7 days
Description: . TSCs were cultured in 0-20% O2 for 0-7 days±FGF4 as indicated, rapidly frozen, and assayed for free ATP (n=4). (FIG. 6B) At 7 days, FGF4 absence increased terminal differentiation markers 8-20 fold at 20% O2, but lower differentiation levels at 0.5% O2 were not increased by a sorbitol dose, which induces high levels of differentiation at 20% O2. TSCs were cultured for 7 days±FGF4 at 20% or 0.5% O2±100 mM sorbitol. mRNA was purified and reverse transcribed, then analyzed for relative amounts of 3 terminal differentiation markers that were normalized to housekeeping mRNAs. Triplicate experiments are shown, with mean±s.e.m. (error bars). […]. (FIG. 6D) Correspondingly, at 7 days, mitochondrial Δψm increased only at O2≥2% with FGF4 removal. TSCs were cultured for 7 days at 20% O2 (a,d), 2% O2 (b,e), or 0.5% O2 (c,f) with FGF4 (a-c) or without FGF4 (d-f) and stained with JC1. Micron bar in micrograph (a) indicates […]. Green fluorescence indicates monomeric stain and low membrane charge and red fluorescence indicates polymeric stain and high charge. For original color fluorescence figures see (Xie, Stem Cell Research, 13:478, 2014 (Xie, 2014)).
RNA isolation and quantitative reverse transcription-PCR (qRT-PCR). […] Briefly, DNase-treated total RNA was isolated following cDNA preparation using QuantiTect Reverse Transcription Kit […] (Qiagen). […]

[1] = system: Rex1-RFP ESCs, Oct4-GFP ESCs; experiment: Plate reader fluorescence of Rex1-RFP and Oct4-GFP reporter ESCs; type: cell-based, mouse; details: 3 days
Description: FIGS. 23A and 23B. Stress induces loss of Rex1-RFP but not Oct4-GFP after days of 200 mM sorbitol. Viable pluripotency reporter Rex1-RFP ESCs (FIG. 23A) or Oct4-GFP ESCs (FIG. 23B) were cultured in […] plates to 30% confluence. Cells were then treated with 200 mM of sorbitol as an osmotic stress for 3 days. Fluorescence was determined from live ESCs using a plate reader from 200 mM sorbitol treated cells was normalized with the non-sorbitol treated control cells. Four independent experiments were carried out and plotted here.
FIG. 24. Viable Rex1 promoter reporter responds with stress treatment in a dose-dependent manner in flow cytometry assay. mESCs expressing Rex1 promoter reporter were cultured in 12-well plates till 30% confluent. Cells were then treated with 200-300 mM of sorbitol in 25 mM increments for 3 days. After trypsinization cell suspensions were assayed by flow cytometry.
mESC culture and stimulation. […] Osmolality of ESC media with and without added 200 mM sorbitol was determined as in Example 2.
Fluorescence determination by plate reader of pluripotency reporters. mESCs that stably express Oct4-copGFP and/or Rex1-mApple promoter reporters were plated on 96-well plates at a starting confluence of 5%. Four identical plates were made for the time course study. Cells were grown for 24 hr in incubator till 10% confluence was reached; an addition of stimuli was designated time zero. The cells were stressed for a time period selected from 1, 2, or 3 days. At each time point, the medium was removed and the cells were rinsed with D-PBS. At 50 μl/well, ESCs were measured for fluorescence using the Synergy H1 microplate reader (BioTek, Winooski, VT). The excitation and detection wavelengths for Oct4-copGFP were 485 nm and 528 nm, respectively. The excitation and detection wavelengths for Rex1-mApple were 568 nm and 611 nm, respectively. After live-cell reading, the cells were lysed with 50 μL of lysis buffer (1% NP-40, 0.5% TX-100, 100 mM NaCl, 2 mM EDTA, 50 mM Tris-HCl, and pH 7.5) and measured for fluorescence with the same parameters above. After fluorescence determination, the cell lysates were further measured for total protein concentrations by adding 100 μl of Pierce BCA protein assay reagent (Thermo Scientific Inc.) following the manufacturer's instructions. Finally, the fluorescence readings from either live-cells or lysates were normalized to total protein concentration readings, in which higher readings represent higher pluripotency of the cells.

## OC[C@@H](O)[C@@H](O)[C@H](O)[C@@H](O)CO [sorbitol]
TSCs
  mRNA expression of terminal differentiation markers PL1, Plf, synTa: did not increase
[1]; 200 mM, LIF present
  Rex1-RFP fluorescence: significant loss
  decrease in Rex1-RFP activity: 20%
[1]; 200 mM, vs non-sorbitol control
  Oct4-GFP fluorescence: not significantly different
[1]; all doses 200-300 mM in 25 mM increments
  Rex1-RFP fluorescence: significant decrease
